The source of these data is patent publication US20240398837A1, “Combination Therapy For Prostate Cancer” (Janssen Pharmaceutica NV, priority 2017, published 2024).

Read-outs that look alike come from different tables or passages of the source.

In one data set the test system is androgens. The following applies: cited from earlier work.
Another data set has as its system mCRPC. The conditions noted are these: cited from earlier work.
Data set [1] deals with human VCaP prostate tumors. The conditions noted are these: for TGI (%): day 58, vs. vehicle control; for TGI (%) / Tumor on day: p.o. Qd x 35; for ILS (%): increased life span, compared with group 1 (vehicle); for MLS: median lifespan, euthanized when tumor volume reached 1500 mm^3; for Tumor on day: tumor volume, Mean ± SEM, day 58, N=10/group.
The next data set deals with PARP-2 (Homo sapiens, UniProt Q9UGN5). The conditions noted are these: in words; cited from earlier work.
The next data set addresses PARP-1 (Homo sapiens, UniProt P09874). The following applies: in words; cited from earlier work.
For another data set, the system named is neurological function. The following applies: conscious mice; cited from earlier work.
The conditions of data set [2]: anesthetized dogs; cited from earlier work.
Data set [3] relates to cytochrome P450 (CYP) enzymes. The following applies: in words; cited from earlier work.
A further data set deals with CYP1A2. The following applies: preclinical data; cited from earlier work.
For data set [4], the system named is BRCA-1-deficient breast, BRCA-2-deficient pancreatic and ovarian cancers. The conditions noted are these: mice; cited from earlier work.
Data set [5] relates to cancer cell lines that have been silenced for BRCA-1 or BRCA-2 genes, or that have BRCA-1 and BRCA-2 mutations. The following applies: due to cell cycle arrest, followed by apoptosis; cited from earlier work.
The conditions of data set [6]: cited from earlier work.
The target in another data set is P-glycoprotein (Homo sapiens, UniProt P08183). The following applies: cited from earlier work.
The mark [7] stands for this setting: added to castration, relative to castration alone.

Chain of P-glycoprotein (P08183 whole entry): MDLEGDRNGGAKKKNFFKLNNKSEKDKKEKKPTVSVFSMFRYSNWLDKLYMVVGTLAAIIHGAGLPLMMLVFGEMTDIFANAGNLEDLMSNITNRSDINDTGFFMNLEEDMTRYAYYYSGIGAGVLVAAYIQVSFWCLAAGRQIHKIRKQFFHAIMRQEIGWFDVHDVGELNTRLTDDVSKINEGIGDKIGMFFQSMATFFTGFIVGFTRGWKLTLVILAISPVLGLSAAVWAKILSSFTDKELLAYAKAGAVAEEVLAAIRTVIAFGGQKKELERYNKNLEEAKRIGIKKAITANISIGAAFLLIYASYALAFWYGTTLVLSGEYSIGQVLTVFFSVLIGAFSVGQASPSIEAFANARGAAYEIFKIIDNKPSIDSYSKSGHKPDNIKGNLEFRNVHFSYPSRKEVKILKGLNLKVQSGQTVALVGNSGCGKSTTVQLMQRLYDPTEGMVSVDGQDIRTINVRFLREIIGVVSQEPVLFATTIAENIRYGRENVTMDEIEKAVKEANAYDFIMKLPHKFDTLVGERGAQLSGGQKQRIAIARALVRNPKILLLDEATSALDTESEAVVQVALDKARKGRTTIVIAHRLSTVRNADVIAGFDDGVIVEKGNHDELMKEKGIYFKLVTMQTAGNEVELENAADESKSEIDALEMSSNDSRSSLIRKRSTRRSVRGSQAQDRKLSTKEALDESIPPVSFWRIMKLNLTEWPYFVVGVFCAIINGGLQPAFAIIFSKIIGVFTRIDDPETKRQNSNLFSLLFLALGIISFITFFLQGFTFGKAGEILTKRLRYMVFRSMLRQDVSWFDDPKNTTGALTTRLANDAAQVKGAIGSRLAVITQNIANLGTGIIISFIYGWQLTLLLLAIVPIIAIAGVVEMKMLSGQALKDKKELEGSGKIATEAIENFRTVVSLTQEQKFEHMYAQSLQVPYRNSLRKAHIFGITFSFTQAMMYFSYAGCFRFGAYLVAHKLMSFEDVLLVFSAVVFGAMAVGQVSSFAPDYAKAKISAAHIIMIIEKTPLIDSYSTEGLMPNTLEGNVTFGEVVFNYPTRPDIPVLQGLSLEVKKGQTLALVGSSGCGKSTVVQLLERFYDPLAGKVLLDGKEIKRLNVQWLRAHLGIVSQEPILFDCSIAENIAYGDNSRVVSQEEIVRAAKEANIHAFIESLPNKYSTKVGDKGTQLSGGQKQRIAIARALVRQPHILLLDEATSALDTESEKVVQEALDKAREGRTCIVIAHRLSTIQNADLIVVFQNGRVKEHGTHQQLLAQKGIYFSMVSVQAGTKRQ
Chain of PARP-1 (P09874 whole entry, species assumed): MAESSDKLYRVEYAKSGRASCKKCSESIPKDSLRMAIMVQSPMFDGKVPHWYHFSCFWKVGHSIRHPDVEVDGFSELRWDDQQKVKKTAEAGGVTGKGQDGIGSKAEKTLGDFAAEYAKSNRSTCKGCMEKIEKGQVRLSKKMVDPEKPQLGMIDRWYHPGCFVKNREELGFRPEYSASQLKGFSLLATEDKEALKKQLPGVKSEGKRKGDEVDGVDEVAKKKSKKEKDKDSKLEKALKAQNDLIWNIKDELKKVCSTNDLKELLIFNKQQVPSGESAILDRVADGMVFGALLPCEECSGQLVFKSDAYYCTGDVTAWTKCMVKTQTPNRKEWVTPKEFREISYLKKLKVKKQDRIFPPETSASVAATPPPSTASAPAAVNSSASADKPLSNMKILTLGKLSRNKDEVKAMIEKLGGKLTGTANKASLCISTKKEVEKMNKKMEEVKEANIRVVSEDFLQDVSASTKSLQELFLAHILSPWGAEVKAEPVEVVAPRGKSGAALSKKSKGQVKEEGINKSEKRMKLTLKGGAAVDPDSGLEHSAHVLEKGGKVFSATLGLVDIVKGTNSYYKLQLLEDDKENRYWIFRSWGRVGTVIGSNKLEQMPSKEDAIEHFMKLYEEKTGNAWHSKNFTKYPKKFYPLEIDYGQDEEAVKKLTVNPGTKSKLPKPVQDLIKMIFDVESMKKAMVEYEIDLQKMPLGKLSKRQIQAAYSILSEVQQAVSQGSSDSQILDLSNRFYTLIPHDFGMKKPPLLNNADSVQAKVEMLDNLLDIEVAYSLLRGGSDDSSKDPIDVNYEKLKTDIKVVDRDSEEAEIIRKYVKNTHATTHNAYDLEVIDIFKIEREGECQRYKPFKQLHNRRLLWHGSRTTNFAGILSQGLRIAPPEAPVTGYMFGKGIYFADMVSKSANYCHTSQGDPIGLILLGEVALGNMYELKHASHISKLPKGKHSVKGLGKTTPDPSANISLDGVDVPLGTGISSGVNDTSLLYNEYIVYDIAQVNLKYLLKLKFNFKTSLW
Chain of PARP-2 (Q9UGN5 whole entry, species assumed): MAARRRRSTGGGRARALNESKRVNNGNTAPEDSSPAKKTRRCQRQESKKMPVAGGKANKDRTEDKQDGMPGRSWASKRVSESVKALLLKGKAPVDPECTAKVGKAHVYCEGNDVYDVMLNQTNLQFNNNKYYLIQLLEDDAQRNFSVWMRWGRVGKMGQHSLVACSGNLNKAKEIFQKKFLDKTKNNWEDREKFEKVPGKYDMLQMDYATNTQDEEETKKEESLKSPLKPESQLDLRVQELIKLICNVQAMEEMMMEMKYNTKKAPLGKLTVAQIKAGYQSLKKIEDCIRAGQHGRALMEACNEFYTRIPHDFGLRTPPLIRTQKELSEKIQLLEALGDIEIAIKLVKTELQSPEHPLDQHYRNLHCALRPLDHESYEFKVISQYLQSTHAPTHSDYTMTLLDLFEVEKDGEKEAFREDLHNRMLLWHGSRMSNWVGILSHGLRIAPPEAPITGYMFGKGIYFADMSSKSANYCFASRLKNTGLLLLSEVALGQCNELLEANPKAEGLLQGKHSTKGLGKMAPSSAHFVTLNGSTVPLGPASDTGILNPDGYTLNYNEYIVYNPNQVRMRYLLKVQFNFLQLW

In the case of `CC(=O)O[C@H]1CC[C@@]2(C)C(=CC[C@@H]3[C@@H]2CC[C@]2(C)C(c4cccnc4)=CC[C@@H]32)C1` [abiraterone acetate, 3β-acetoxy-17-(3-pyridyl)androsta-5,16-diene], in the data set with androgens (setting [7]), the “reduction of levels of DHEA” value is reported as 97-98%, the “reduction of levels of DHT” value is listed as 85% and the “reduction of levels of androstenedione” value is given as 77-78%. Moreover, the circulating testosterone levels result in the data set on androgens (after administration of abiraterone acetate, castration gives 20 ng/dL) is given as “less than 1 ng/dL”.
With `O=C(c1cc(Cc2n[nH]c(=O)c3ccccc23)ccc1F)N1CCN(C(=O)C2CC2)CC1` [olaparib], the “responders that were biomarker-positive for anomalies in DNA-repair genes” value in the data set on mCRPC (14 of the 16 responding patients) is given as 88%. For the same molecule, the “patients with a response” value is given as 33% in the data set with mCRPC (all patients, sixteen of 49, 95% CI 20%, 48%); 6% in the data set with mCRPC (biomarker-negative, 2 of 33); 4 of 5 with mCRPC (patients with ATM aberrations); “all 7” in the data set with mCRPC (patients with BRCA-2 loss). Besides, the “Overall survival (OS), median” value in the data set with mCRPC (biomarker-negative group) is listed as 7.5 months; with mCRPC (biomarker-positive group), 13.8 months. Also, the “Radiographic progression-free survival (rPFS), median” value with mCRPC (biomarker-negative group) is recorded as 2.7 months; with mCRPC (biomarker-positive group) it was 9.8 months.
Consider `C[C@]12CC[C@H](O)CC1=CC[C@@H]1[C@@H]2CC[C@]2(C)C(c3cccnc3)=CC[C@@H]12` [Abiraterone], for which, in [1], the “TGI (%)” value is given as 37.6%, the “ILS (%)” value turned out to be 13.1%, the “MLS” value turned out to be 88 days and the Tumor on day was 523 ± 51 mm^3. Further, in data set [1] (days 37-55, compared with vehicle control), the “inhibition of tumor growth” value is on record as 35%-46%. Moreover, in data set [1] (vs the vehicle control group), the “increase of MLS” value is listed as 10.5 days.
As for `NC(=O)c1cccc2cn(-c3ccc([C@@H]4CCCNC4)cc3)nc12` [Niraparib, 2-[4-[(3S)-piperidin-3-yl]phenyl]indazole-7-carboxamide], in data set [1], the “TGI (%)” value worked out at 20.8%, the “ILS (%)” value is −0.6%, the “MLS” value was 79 days and the Tumor on day is reported as 664 ± 50 mm^3. The “inhibition of tumor growth” value in data set [1] (days 41-55, compared with vehicle control) is “approximately 25%”. The “MLS / survival benefit” value in data set [1] (in words, compared with the vehicle control group) is “did not increase MLS or provide a significant survival benefit”. Further, the “activity against PARP-2” value on PARP-2 is reported as “potent activity”. The “activity against PARP-1” value on PARP-1 was “potent activity”. Moreover, the “effect on neurological function” value in the data set on neurological function is on record as “no effect”. In addition, in [2], the QRS cardiac interval result was “increased”, the QTc interval entry was “unaffected”, the heart rate entry was “increased” and the mean arterial pressure result was “increased”. In [3], the “inhibition or induction of CYP enzymes” value is recorded as “not a potent inhibitor or inducer”. Besides, the “potential to induce CYP1A2 enzymes” value in the data set on CYP1A2 was “moderate potential”. In addition, the antitumor activity entry in data set [4] is listed as “has antitumor activity”. Moreover, the anti-proliferative activity result in [5] was “demonstrates anti-proliferative activity”. For the same molecule, the metabolism entry in [6] (in vitro, multiple metabolic enzymes (both CYPs and non-CYPs)) is listed as “limited metabolism”. Besides, in [6] (in words), the clearance result is “low clearance drug”. Further, at P-glycoprotein, the P-glycoprotein substrate entry is listed as “is a P-glycoprotein substrate”.
